This passage reports Ki results from ChEMBL document CHEMBL2413006, “Acyclic phosph(on)ate inhibitors of Plasmodium falciparum hypoxanthine-guanine-xanthine phosphoribosyltransferase” (Bioorg Med Chem, 2013).

The target in test [1] is T1, Hypoxanthine-guanine phosphoribosyltransferase (Homo sapiens, UniProt P00492).
T1 sequence (P00492 whole entry): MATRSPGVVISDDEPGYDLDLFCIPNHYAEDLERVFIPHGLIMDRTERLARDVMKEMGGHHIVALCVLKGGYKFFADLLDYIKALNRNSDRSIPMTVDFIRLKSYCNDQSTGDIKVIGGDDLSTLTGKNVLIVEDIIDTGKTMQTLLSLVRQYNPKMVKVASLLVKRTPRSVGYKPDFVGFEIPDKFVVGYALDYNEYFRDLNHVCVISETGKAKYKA
As to the kind of experiment: Inhibition of human HGPRT using xanthine/PRPP assessed as xanthine/guanine conversion to […]guanosine-5'-monophosphate by spectrophotometry in presence of PRPP.

Test [2] in a line: Inhibition of Plasmodium falciparum HGXPRT assessed as xanthine/guanine conversion to xanthosine-5'-monophosphate/guanosine-5'-monophosphate by spectrophotometry in presence of PRPP.

In the case of `O=c1[nH]cnc2c(CNC(CO)(CO)COP(=O)(O)O)c[nH]c12`, the Ki was over 10 µM in test [1] and 15.3 µM in test [2].

On to `O=c1[nH]cnc2c(CN[C@H](CO)COP(=O)(O)O)c[nH]c12`, for which the Ki was over 10 µM in test [1] and 0.0024 µM in test [2].

In the case of `Nc1nc2c(CN[C@H](CO)COP(=O)(O)O)c[nH]c2c(=O)[nH]1`, the values for the Ki in test [1] and in test [2] were over 10 µM and 0.0143 µM, respectively.

As for `Nc1nc2c(CN[C@@H](CO)COP(=O)(O)O)c[nH]c2c(=O)[nH]1`, the Ki in test [1] is over 10 µM; in test [2] it was 0.65 µM.

`O=c1[nH]cnc2c(CN[C@H](CO)[C@H](O)COP(=O)(O)O)c[nH]c12`: the figures for the Ki in test [1] and in test [2] were over 10 µM and 0.98 µM, respectively.

Take `O=c1[nH]cnc2c(CNCCCCP(=O)(O)O)c[nH]c12`: the Ki in test [1] was over 10 µM; in test [2] it was 0.49 µM.

For the compound `O=c1[nH]cnc2c(CNCCCCCP(=O)(O)O)c[nH]c12`, the inhibitory constant (Ki) is over 10 µM in test [1] and 8.6 µM in test [2].

On to `O=c1[nH]cnc2c(CNCCCP(=O)(O)O)n[nH]c12`, for which the Ki was over 10 µM in test [1] and 0.0276 µM in test [2].

With `O=c1[nH]cnc2c(CCNCCP(=O)(O)O)c[nH]c12`, the Ki in test [1] was over 10 µM; in test [2], 0.62 µM.

As to `O=c1[nH]cnc2c(CCNCCCP(=O)(O)O)c[nH]c12`, the Ki in test [1] was 11.3 µM; in test [2], over 20 µM.

For the compound `O=c1[nH]cnc2c(CN[C@H](CO)CCP(=O)(O)O)c[nH]c12`, the Ki in test [2] stood at 0.00065 µM.

With `O=c1[nH]cnc2c(CN[C@@H](CO)CCP(=O)(O)O)c[nH]c12`, the Ki in test [2] was found to be 0.0234 µM.

In the case of `O=c1[nH]cnc2c(CN[C@H](CO)CC(F)(F)P(=O)(O)O)c[nH]c12`, the Ki in test [1] was over 10 µM; in test [2], 0.087 µM.

Regarding `Nc1nc2c(CN[C@H](CO)CC(F)(F)P(=O)(O)O)c[nH]c2c(=O)[nH]1`, the Ki in test [1] was over 10 µM; in test [2], 0.1 µM.

In the case of `O=c1[nH]cnc2c(CNCCOP(=O)(O)O)c[nH]c12`, the Ki in test [1] is over 10 µM; in test [2], 14.4 µM.

Turning to `O=c1[nH]cnc2c(CNCP(=O)(O)O)c[nH]c12`, the Ki in test [1] was over 10 µM; in test [2], over 20 µM.

As for `O=c1[nH]cnc2c(CNCCP(=O)(O)O)c[nH]c12`, the Ki in test [1] was over 10 µM; in test [2], 1.9 µM.

Regarding `O=c1[nH]cnc2c(CNCCCP(=O)(O)O)c[nH]c12`, the results for the Ki in test [1] and in test [2] were 4.9 µM and 0.0106 µM, respectively.

For the compound `O=c1[nH]cnc2c(CN[C@H](CO)CC(F)P(=O)(O)O)c[nH]c12` (mixture of isomers), the Ki in test [2] was determined as 0.0012 µM.

For `O=c1[nH]cnc2c(CNCC(O)CP(=O)(O)O)c[nH]c12` (racemic), the Ki in test [1] is over 10 µM; in test [2] it was 0.0091 µM.

Turning to `O=c1[nH]cnc2c(CNCC(CO)CP(=O)(O)O)c[nH]c12` (racemic), the Ki was over 10 µM in test [1] and 0.49 µM in test [2].

With `O=c1[nH]cnc2c(CNC(CO)COP(=O)(O)O)c[nH]c12` (racemic), the Ki was over 10 µM in test [1] and 0.019 µM in test [2].

Take `O=c1[nH]c(Cl)nc2c(CNC(CO)COP(=O)(O)O)c[nH]c12` (racemic): the Ki is over 10 µM in test [1] and 9.4 µM in test [2].
